Measurements reported in patent publication US7994173B2, “2-piperazin-1-yl-3H-imidazo[4,5-b]pyridine derivatives” (Janssen Pharmaceutica N.V., priority 2007, dated 2011).
Counter-ions that a name gives are not always drawn.

Assays:
[1] = system: fundus of the stomach (gastric tone); test: Gastric tone measured by an electronic barostat in conscious dogs; assay type: in vivo, dog (female beagle); conditions: for Maximum change in volume (mean): relaxation of the fundus, 1 hour after I.D. administration, 0.63 mg/kg
Experimental: Gastric tone cannot be measured by manometric methods. Therefore an electronic barostat was used. This allows the study of the physiological pattern and regulation of gastric tone in conscious dogs and the influence of test-compounds on this tone. The barostat consists of an air injection system which is connected by a double-lumen 14-French polyvinyl tube to an ultrathin flaccid polyethylene bag (maximal volume: ±700 ml). Variations in gastric tone were measured by recording changes in the volume of air within an intragastric bag, maintained at a constant pressure. The barostat maintains a constant pressure (preselected) within a flaccid air-filled bag introduced into the stomach, changing the volume of air within the bag by an electronic feedback system. Thus, the barostat measures gastric motor activity (contraction or relaxation) as changes in intragastric volume (decrease or increase resp.) at a constant intragastric pressure. The barostat consists of a strain gauge linked by an electronic relay to an air injection-aspiration system. Both the strain gauge and the injection system are connected by means of double-lumen polyvinyl tube to an ultrathin polyethylene bag. A dial in the barostat allows selection of the pressure level to be maintained within the intragastric bag. Female beagle dogs, weighing 7-17 kg, were trained to stand quietly in Pavlov frames. They were implanted with a gastric cannula under general anaesthesia and aseptic precautions. After a median laparotomy, an incision was made through the gastric wall in longitudinal direction between the greater and the lesser curve, 2 cm above the nerves of Latarjet. The cannula was secured to the gastric wall by means of a double purse string suture and brought out via a stub wound at the left quadrant of the hypochondrium. Dogs were allowed a recovery period of two weeks. At the beginning of the experiment, the cannula was opened in order to remove any gastric juice or food remnants. If necessary, the stomach was cleansed with 40 to 50 ml lukewarm water. The ultrathin bag of the barostat was positioned into the fundus of the stomach through the gastric cannula. In order to ensure easy unfolding of the intragastric bag during the experiment, a volume of 150-200 ml was injected into the bag by raising the pressure to maximally 14 mm Hg (about 1.87 kPa) very briefly. This procedure was repeated twice. After a stabilization period of 60 minutes at an intragastric pressure of 6 mmHg (about 0.81 kPa), the test compound was administered subcutaneously, or intraduodenally, at 2 mmHg (0.27 kPa). […] Table C-1 summarizes the mean maximal change in volume (in ml) on relaxation of the fundus, 1 hour after I.D. administration of the test compound (0.63 mg/kg).

[2] = system: fundus of the stomach (gastric tone); test: as above; assay type: in vivo, dog (female beagle); conditions: for Maximum change in volume (Table C-2): I.D.

| Compound | melting point [°C] | Maximum change in volume (mean) [1] [mL] | other results |
| --- | --- | --- | --- |
| Cn1c(N2CCN(Cc3cccnc3)CC2)nc2cccnc21 (as salt: HCl) (hydrate or solvate) [Co. No. 3] | 182 | – | – |
| Cn1c(N2CCN(Cc3cccnc3)CC2)nc2cccnc21 [compound 3] | – | 154 | – |
| Cn1c(N2CCNCC2)nc2cccnc21 | 136 | – | – |
| Cn1c(N2CCN(Cc3ccc4c(c3)OCO4)CC2)nc2cccnc21 [compound 10] | – | 251 | – |
| Cn1c(N2CCN(Cc3ccccc3)CC2)nc2cccnc21 [compound 11] | – | 220 | Maximum change in volume (Table C-2) ([2]; dose 0.0025 mg/kg): 83 mL; Maximum change in volume (Table C-2) ([2]; dose 0.01 mg/kg): 157 mL; Maximum change in volume (Table C-2) ([2]; dose 0.04 mg/kg): 146 mL; Maximum change in volume (Table C-2) ([2]; dose 0.16 mg/kg): 180 mL; Maximum change in volume (Table C-2) ([1]; I.D., dose 0.63 mg/kg): 220 mL |
| Cn1c(N2CCN(Cc3ccc4c(c3)OCO4)CC2)nc2cccnc21 [Co. No. 10] | 114 | – | – |
| CN(C)c1ccnc2c1nc(N1CCN(Cc3ccccc3)CC1)n2C [compound 9] | – | 185 | – |
| Cn1c(C2CCCN(Cc3ccccc3)CC2)nc2cccnc21 (centres unmarked) [(72) of WO-01/46189, reference compound] | – | – | Maximum change in volume (Table C-2) ([2]; dose 0.16 mg/kg): 45 mL |
| CCCc1nc2c(cc1C)nc(N1CCN(Cc3ccccc3)CC1)n2C [compound 1] | – | 237 | – |
| Cn1c(N2CCN(Cc3ccccc3)CC2)nc2cccnc21 [Co. No. 11] | 98 | – | – |
| CN(C)c1ccnc2c1nc(N1CCN(Cc3ccccc3)CC1)n2C [Co. No. 9] | 128 | – | – |
| Cn1c(N2CCNCC2)nc2cccnc21 [compound 14] | – | – | Maximum change in volume (mean) ([2]; relaxation of the fundus, 1 hour after I.D. administration, administered at 0.16 mg/kg (footnote *)): 154.6 mL |
